From ChEMBL document CHEMBL3102811, “Synthesis and anti-inflammatory activity of indole glucosinolates” (2014) come the findings set out here.

Common to all, as to assay type: functional
Test [1] has as its system THP-1. Description: Antiinflammatory activity in PMA-treated human THP1 cells assessed as LPS-induced TNFalpha secretion at 5 uM after 4 hrs by sandwich ELISA relative to control. In general terms: In an ELISA, binding on a coated surface is turned into a signal by an enzyme label.
The subject of test [2] is THP-1. The test is described as follows: Antiinflammatory activity in PMA-treated human THP1 cells assessed as inhibition of LPS-induced TNFalpha secretion at 0.5 uM after 4 hrs by sandwich ELISA relative to control. The following applies: THP-1, 4 h.
Test [3] relates to THP-1. The test is described as follows: Antiinflammatory activity in PMA-treated human THP1 cells assessed as LPS-induced TNFalpha secretion at 0.5 uM after 4 hrs by sandwich ELISA relative to control.
Test [4] relates to THP-1. The test is described as follows: Antiinflammatory activity in PMA-treated human THP1 cells assessed as LPS-induced TNFalpha secretion at 15 uM after 4 hrs by sandwich ELISA relative to control.
For test [5], the system named is THP-1. Description: Antiinflammatory activity in PMA-treated human THP1 cells assessed as inhibition of LPS-induced TNFalpha secretion at 15 uM after 4 hrs by sandwich ELISA relative to control. The following applies: THP-1, 4 h.
Test [6] relates to THP-1. The test is described as follows: Antiinflammatory activity in PMA-treated human THP1 cells assessed as inhibition of LPS-induced TNFalpha secretion at 1 uM after 4 hrs by sandwich ELISA relative to control. Conditions: THP-1, 4 h.
Test [7] has as its system THP-1. Description: Antiinflammatory activity in PMA-treated human THP1 cells assessed as LPS-induced TNFalpha secretion at 10 uM after 4 hrs by sandwich ELISA relative to control.
Test [8] relates to THP-1. Description: Antiinflammatory activity in PMA-treated human THP1 cells assessed as LPS-induced TNFalpha secretion at 1 uM after 4 hrs by sandwich ELISA relative to control.
Test [9] has as its system THP-1. Description: Antiinflammatory activity in PMA-treated human THP1 cells assessed as LPS-induced TNFalpha secretion at 0.10 uM after 4 hrs by sandwich ELISA relative to control.
For test [10], the system named is THP-1. The test is described as follows: Antiinflammatory activity in PMA-treated human THP1 cells assessed as inhibition of LPS-induced TNFalpha secretion at >=10 uM after 4 hrs by sandwich ELISA relative to control.
Test [11] deals with THP-1. The test is described as follows: Antiinflammatory activity in PMA-treated human THP1 cells assessed as inhibition of LPS-induced TNFalpha secretion at 10 uM after 4 hrs by sandwich ELISA relative to control. The following applies: THP-1, 4 h.

Structures are written as SMILES. Some results are limits rather than exact numbers.

For `Oc1cc(O)c2c(c1)OC(c1ccc(O)c(O)c1)C(O)C2` (centres undefined) [CATECHIN], the Activity with THP-1 [1] is 282.65 pg/mg; with THP-1 [3], 303.98 pg/mg; in the test with THP-1 [4], 255.94 pg/mg. Also, in the test with THP-1 [2], the inhibition at 0.5 µM came out at 37%. For the same compound, the inhibition at 15 µM in the test with THP-1 [5] was 48%.
Regarding `O=S(=O)([O-])O/N=C(\Cc1c[nH]c2ccccc12)S[C@@H]1O[C@H](CO)[C@@H](O)[C@H](O)[C@H]1O.[K+]`, in the test with THP-1 [6], the inhibition at 1 µM was at least 24%. For the same compound, the Activity in the test on THP-1 [4] turned out to be 136.79 pg/mg; in the test on THP-1 [7], 158.94 pg/mg; in the test on THP-1 [8], 196.65 pg/mg; with THP-1 [9], 215.57 pg/mg. In the test on THP-1 [5], the inhibition at 15 µM is 54%.
Turning to `COn1cc(C/C(=N\OS(=O)(=O)[O-])S[C@@H]2O[C@H](CO)[C@@H](O)[C@H](O)[C@H]2O)c2ccccc21.[K+]`, the “inhibition (INH)” value in the test with THP-1 [10] is reported as “>=32%”. In the test with THP-1 [6], the inhibition at 1 µM is at least 24%. Also, the Activity with THP-1 [4] worked out at 169.06 pg/mg; with THP-1 [7], 181.1 pg/mg; in the test with THP-1 [8], 228.9 pg/mg; in the test on THP-1 [9] it was 251.69 pg/mg.
Take `COc1cccc2[nH]cc(C/C(=N\OS(=O)(=O)[O-])S[C@@H]3O[C@H](CO)[C@@H](O)[C@H](O)[C@H]3O)c12.[K+]`: the inhibition at 10 µM in the test with THP-1 [11] was 41%. The inhibition at 1 µM in the test with THP-1 [6] worked out at 24%. Further, the Activity in the test on THP-1 [4] amounted to 135.01 pg/mg; in the test on THP-1 [7], 146.53 pg/mg; in the test with THP-1 [8], 187.45 pg/mg; in the test on THP-1 [9], 214.36 pg/mg. Besides, in the test on THP-1 [5], the inhibition at 15 µM worked out at 46%.

What is called inhibition is the change of the read-out against control, counted positive when it falls.
